Measured values taken from patent US20210254272A1, “TEXTILES HAVING ANTIMICROBIAL PROPERTIES” (Livinguard AG, priority 2015, published 2021).

Test system: E. coli (ATCC 25922)
Assay: AATCC Test Method 100-2012 antibacterial activity of the treated textile, after 25 washes and 12 abrasion cycles, contact time 60 minutes
Format: cell-based
Experimental: The antibacterial activity of the textile was tested in accordance with AATCC Test Method 100-2012. Prior to the test, the fabric was cut into coupons of 2×4 inches and washed separately 25 times, and exposed to 12 abrasion cycles, as per US EPA protocol 90072PA4 (described further below). The tests were made against E. coli (ATCC 25922). Contact time was 60 minutes, after inoculating with 10^8 CFU per coupon.

polyglucosamine [chitosan]
Log reduction of antimicrobial performance of each active ingredient (exhaust 80 ° C., solution dosage 1% o.w.f, process time 90 min): 2.72 Log | Log reduction of antimicrobial performance (pure cotton fabric, exhaust 80° C., 60 min, dosage 0.1% o.w.f): 0.63 Log | Log reduction of antimicrobial performance (pure cotton fabric, exhaust 80° C., 60 min, dosage 0.2% o.w.f): 1.37 Log | Log reduction of antimicrobial performance (pure cotton fabric, exhaust 80° C., 60 min, dosage 0.5% o.w.f): 1.91 Log | Log reduction of antimicrobial performance (pure cotton fabric, exhaust 80° C., 60 min, dosage 0.8% o.w.f): 2.21 Log | Log reduction of antimicrobial performance (pure cotton fabric, exhaust 80° C., 60 min, dosage 1.0% o.w.f): 2.71 Log | Log reduction of antimicrobial performance (pure cotton, exhaust 80° C., 1% o.w.f, 60 min, curing 180° C., curing dwell time 0.5 min): 0.4 Log | Log reduction of antimicrobial performance (pure cotton, exhaust 80° C., 1% o.w.f, 60 min, curing 180° C., curing dwell time 1.0 min): 0.8 Log | Log reduction of antimicrobial performance (pure cotton, exhaust 80° C., 1% o.w.f, 60 min, curing 180° C., curing dwell time 1.5 min): 1.6 Log | Log reduction of antimicrobial performance (pure cotton, exhaust 80° C., 1% o.w.f, 60 min, curing 180° C., curing dwell time 2.0 min): 2.7 Log | Log reduction of antimicrobial performance (pure cotton, exhaust 80° C., 1% o.w.f, 60 min, curing 180° C., curing dwell time 2.5 min): 2.3 Log | Log reduction of antimicrobial performance (pure cotton, exhaust 80° C., 1% o.w.f, 60 min, curing 180° C., curing dwell time 3.0 min): 1.4 Log | Log reduction of antimicrobial performance (solution dosage 0.10% o.w.f, exhaust temperature 40° C., process time 60 min): 0 Log | Log reduction of antimicrobial performance (solution dosage 0.10% o.w.f, exhaust temperature 60° C., process time 60 min): 0 Log | Log reduction of antimicrobial performance (solution dosage 0.10% o.w.f, exhaust temperature 65° C., process time 60 min): 0 Log | Log reduction of antimicrobial performance (solution dosage 0.10% o.w.f, exhaust temperature 70° C., process time 60 min): 0 Log | Log reduction of antimicrobial performance (solution dosage 0.10% o.w.f, exhaust temperature 75° C., process time 60 min): 0.23 Log | Log reduction of antimicrobial performance (solution dosage 0.10% o.w.f, exhaust temperature 80° C., process time 60 min): 0.57 Log | Log reduction of antimicrobial performance (solution dosage 0.10% o.w.f, exhaust temperature 85° C., process time 60 min): 0.67 Log | Log reduction of antimicrobial performance (solution dosage 0.10% o.w.f, exhaust temperature 90° C., process time 60 min): 0.67 Log | Log reduction of antimicrobial performance (solution dosage 0.10% o.w.f, exhaust temperature 95° C., process time 60 min): 0.67 Log | Log reduction of antimicrobial performance (solution dosage 0.20% o.w.f, exhaust temperature 40° C., process time 60 min): 0 Log | Log reduction of antimicrobial performance (solution dosage 0.20% o.w.f, exhaust temperature 60° C., process time 60 min): 0 Log | Log reduction of antimicrobial performance (solution dosage 0.20% o.w.f, exhaust temperature 65° C., process time 60 min): 0 Log | Log reduction of antimicrobial performance (solution dosage 0.20% o.w.f, exhaust temperature 70° C., process time 60 min): 0 Log | Log reduction of antimicrobial performance (solution dosage 0.20% o.w.f, exhaust temperature 75° C., process time 60 min): 0.67 Log | Log reduction of antimicrobial performance (solution dosage 0.20% o.w.f, exhaust temperature 80° C., process time 60 min): 1.34 Log | Log reduction of antimicrobial performance (solution dosage 0.20% o.w.f, exhaust temperature 85° C., process time 60 min): 1.43 Log | Log reduction of antimicrobial performance (solution dosage 0.20% o.w.f, exhaust temperature 90° C., process time 60 min): 1.45 Log | Log reduction of antimicrobial performance (solution dosage 0.20% o.w.f, exhaust temperature 95° C., process time 60 min): 1.45 Log | Log reduction of antimicrobial performance (solution dosage 0.50% o.w.f, exhaust temperature 40° C., process time 60 min): 0 Log | Log reduction of antimicrobial performance (solution dosage 0.50% o.w.f, exhaust temperature 60° C., process time 60 min): 0.09 Log | Log reduction of antimicrobial performance (solution dosage 0.50% o.w.f, exhaust temperature 65° C., process time 60 min): 0.09 Log | Log reduction of antimicrobial performance (solution dosage 0.50% o.w.f, exhaust temperature 70° C., process time 60 min): 0.15 Log | Log reduction of antimicrobial performance (solution dosage 0.50% o.w.f, exhaust temperature 75° C., process time 60 min): 1.12 Log | Log reduction of antimicrobial performance (solution dosage 0.50% o.w.f, exhaust temperature 80° C., process time 60 min): 1.89 Log | Log reduction of antimicrobial performance (solution dosage 0.50% o.w.f, exhaust temperature 85° C., process time 60 min): 1.93 Log | Log reduction of antimicrobial performance (solution dosage 0.50% o.w.f, exhaust temperature 90° C., process time 60 min): 1.94 Log | Log reduction of antimicrobial performance (solution dosage 0.50% o.w.f, exhaust temperature 95° C., process time 60 min): 1.94 Log | Log reduction of antimicrobial performance (solution dosage 0.80% o.w.f, exhaust temperature 40° C., process time 60 min): 0 Log | Log reduction of antimicrobial performance (solution dosage 0.80% o.w.f, exhaust temperature 60° C., process time 60 min): 0.15 Log | Log reduction of antimicrobial performance (solution dosage 0.80% o.w.f, exhaust temperature 65° C., process time 60 min): 0.15 Log | Log reduction of antimicrobial performance (solution dosage 0.80% o.w.f, exhaust temperature 70° C., process time 60 min): 0.21 Log | Log reduction of antimicrobial performance (solution dosage 0.80% o.w.f, exhaust temperature 75° C., process time 60 min): 1.23 Log | Log reduction of antimicrobial performance (solution dosage 0.80% o.w.f, exhaust temperature 80° C., process time 60 min): 2.11 Log | Log reduction of antimicrobial performance (solution dosage 0.80% o.w.f, exhaust temperature 85° C., process time 60 min): 2.34 Log | Log reduction of antimicrobial performance (solution dosage 0.80% o.w.f, exhaust temperature 90° C., process time 60 min): 2.37 Log | Log reduction of antimicrobial performance (solution dosage 0.80% o.w.f, exhaust temperature 95° C., process time 60 min): 2.37 Log | Log reduction of antimicrobial performance (solution dosage 1.00% o.w.f, exhaust temperature 40° C., process time 60 min): 0 Log | Log reduction of antimicrobial performance (solution dosage 1.00% o.w.f, exhaust temperature 60° C., process time 60 min): 0.21 Log | Log reduction of antimicrobial performance (solution dosage 1.00% o.w.f, exhaust temperature 65° C., process time 60 min): 0.22 Log | Log reduction of antimicrobial performance (solution dosage 1.00% o.w.f, exhaust temperature 70° C., process time 60 min): 0.32 Log | Log reduction of antimicrobial performance (solution dosage 1.00% o.w.f, exhaust temperature 75° C., process time 60 min): 1.28 Log | Log reduction of antimicrobial performance (solution dosage 1.00% o.w.f, exhaust temperature 80° C., process time 60 min): 2.67 Log | Log reduction of antimicrobial performance (solution dosage 1.00% o.w.f, exhaust temperature 85° C., process time 60 min): 2.76 Log | Log reduction of antimicrobial performance (solution dosage 1.00% o.w.f, exhaust temperature 90° C., process time 60 min): 2.78 Log | Log reduction of antimicrobial performance (solution dosage 1.00% o.w.f, exhaust temperature 95° C., process time 60 min): 2.78 Log
